From ChEMBL document CHEMBL3885881, “DrugMatrix”

Organism: Rattus norvegicus
Assay type: toxicity, organism-based, Sprague-Dawley
Details: in vivo, po, 24 h, route oral GAVAGE, time 1 day, vehicle 100 % WATER; for ABSOLUTE BASOPHIL / ABSOLUTE EOSINOPHIL / ABSOLUTE LYMPHOCYTE / ABSOLUTE MONOCYTE / BASOPHIL / EOSINOPHIL / ERYTHROCYTE COUNT / HEMATOCRIT / HEMOGLOBIN / LEUKOCYTE COUNT / LYMPHOCYTE / MEAN CORPUSCULAR HEMOGLOBIN / MEAN CORPUSCULAR VOLUME / MONOCYTE / NEUTROPHIL / PLATELET COUNT: tissue Blood; for ALANINE AMINOTRANSFERASE / ALBUMIN / ALKALINE PHOSPHATASE / ASPARTATE AMINOTRANSFERASE / BLOOD UREA NITROGEN / CARBON DIOXIDE / CHLORIDE / CHOLESTEROL / CREATINE PHOSPHOKINASE / CREATININE / GLUCOSE / LACTATE DEHYDROGENASE / LIPASE / PHOSPHORUS / POTASSIUM / SODIUM / TOTAL BILIRUBIN / TOTAL PROTEIN / URIC ACID: tissue Plasma
[1] = 0 mg/kg, vehicle control, dose level Control

Description: DrugMatrix - Regimen: Single

CCOC(=O)N1CCC(=C2c3ccc(Cl)cc3CCc3cccnc32)CC1 [LORATADINE]
ABSOLUTE BASOPHIL [1]: 63.3 cells/µL
ABSOLUTE EOSINOPHIL [1]: 66.7 cells/µL
ABSOLUTE LYMPHOCYTE [1]: 8010 cells/µL
ABSOLUTE MONOCYTE [1]: 240 cells/µL
BASOPHIL [1]: 0.6%
EOSINOPHIL [1]: 0.6%
ERYTHROCYTE COUNT [1]: 6.25 x10E6/uL
HEMATOCRIT [1]: 40.47%
HEMOGLOBIN [1]: 12.83 G/DL
LEUKOCYTE COUNT [1]: 10.19 x10E3/uL
LYMPHOCYTE [1]: 78.7%
MEAN CORPUSCULAR HEMOGLOBIN [1]: 20.53 pg
MEAN CORPUSCULAR VOLUME [1]: 64.67 fL
MONOCYTE [1]: 2.5%
NEUTROPHIL [1]: 17.07%
PLATELET COUNT [1]: 1297 x10E3/uL
ALANINE AMINOTRANSFERASE [1]: 32.67 u/L
ALBUMIN [1]: 3.9 G/DL
ALKALINE PHOSPHATASE [1]: 374 u/L
ASPARTATE AMINOTRANSFERASE [1]: 64.33 u/L
BLOOD UREA NITROGEN [1]: 14 mg/dL
CARBON DIOXIDE [1]: 45.67 mmol/L
CHLORIDE [1]: 103 MEQ/L
CHOLESTEROL [1]: 82.67 mg/dL
CREATINE PHOSPHOKINASE [1]: 216.33 u/L
CREATININE [1]: 0.17 mg/dL
GLUCOSE [1]: 161.33 mg/dL
LACTATE DEHYDROGENASE [1]: 103.67 u/L
LIPASE [1]: 8.67 u/L
PHOSPHORUS [1]: 11 mg/dL
POTASSIUM [1]: 6.83 MEQ/L
SODIUM [1]: 144.67 MEQ/L
TOTAL BILIRUBIN [1]: 0.27 mg/dL
TOTAL PROTEIN [1]: 6.27 G/DL
URIC ACID [1]: 0.67 mg/dL
ABSOLUTE BASOPHIL (2000 mg/kg, dose level High): 63.3 cells/µL
ABSOLUTE EOSINOPHIL (2000 mg/kg, dose level High): 56.7 cells/µL
ABSOLUTE LYMPHOCYTE (2000 mg/kg, dose level High): 5990 cells/µL
ABSOLUTE MONOCYTE (2000 mg/kg, dose level High): 100 cells/µL
BASOPHIL (2000 mg/kg, dose level High): 0.97%
EOSINOPHIL (2000 mg/kg, dose level High): 0.77%
ERYTHROCYTE COUNT (2000 mg/kg, dose level High): 7.26 x10E6/uL
HEMATOCRIT (2000 mg/kg, dose level High): 47.47%
HEMOGLOBIN (2000 mg/kg, dose level High): 14.97 G/DL
LEUKOCYTE COUNT (2000 mg/kg, dose level High): 6.8 x10E3/uL
LYMPHOCYTE (2000 mg/kg, dose level High): 87.87%
MEAN CORPUSCULAR HEMOGLOBIN (2000 mg/kg, dose level High): 20.6 pg
MEAN CORPUSCULAR VOLUME (2000 mg/kg, dose level High): 65.27 fL
MONOCYTE (2000 mg/kg, dose level High): 1.5%
NEUTROPHIL (2000 mg/kg, dose level High): 8.47%
PLATELET COUNT (2000 mg/kg, dose level High): 1455 x10E3/uL
ALANINE AMINOTRANSFERASE (2000 mg/kg, dose level High): 19.67 u/L
ALBUMIN (2000 mg/kg, dose level High): 4.17 G/DL
ALKALINE PHOSPHATASE (2000 mg/kg, dose level High): 348 u/L
ASPARTATE AMINOTRANSFERASE (2000 mg/kg, dose level High): 59.33 u/L
BLOOD UREA NITROGEN (2000 mg/kg, dose level High): 11.33 mg/dL
CARBON DIOXIDE (2000 mg/kg, dose level High): 39.67 mmol/L
CHLORIDE (2000 mg/kg, dose level High): 104 MEQ/L
CHOLESTEROL (2000 mg/kg, dose level High): 66.33 mg/dL
CREATINE PHOSPHOKINASE (2000 mg/kg, dose level High): 336 u/L
CREATININE (2000 mg/kg, dose level High): 0.3 mg/dL
GLUCOSE (2000 mg/kg, dose level High): 156 mg/dL
LACTATE DEHYDROGENASE (2000 mg/kg, dose level High): 112.67 u/L
LIPASE (2000 mg/kg, dose level High): 8.33 u/L
PHOSPHORUS (2000 mg/kg, dose level High): 12.4 mg/dL
POTASSIUM (2000 mg/kg, dose level High): 7.03 MEQ/L
SODIUM (2000 mg/kg, dose level High): 145.67 MEQ/L
TOTAL BILIRUBIN (2000 mg/kg, dose level High): 0.3 mg/dL
TOTAL PROTEIN (2000 mg/kg, dose level High): 6.8 G/DL
URIC ACID (2000 mg/kg, dose level High): 0.8 mg/dL
